Tests used:
[1] = test system: NCI-H460; assay: Proliferation assay (crystal violet staining), NCI-H460; type: cell-based, human; details: Homo sapiens, 96 h, tumour cell proliferation, 4 days incubation, read-out: Inhibition IC50 [M] (NCI-H460)
Procedure: (§1) Kultivierte humane Tumorzellen (MCF7, […] menschliche Mammakarzinomazellen, bezogen von ATCC HTB22; NCI-H460, menschliche nicht kleinzellige Lungenkarzinomazellen, ATCC HTB-177; DU 145, hormonunabhängige menschliche Prostatakarzinomazellen, ATCC HTB-81; HeLa-MaTu, humane Cervixkarzinomazellen, bezogen von EPO-GmbH, Berlin,) werden in einer Dichte von 5000 (MCF7, DU145) bzw. 3000 (NCI-H460, HeLa-MaTu) Zellen/Messpunkt in einer 96-Loch Multititerplatte in 200 µl des entsprechenden Wachstumsmediums ausplattiert. Nach 24 Stunden werden die Zellen einer Platte (Nullpunkt-Platte) mit Kristallviolett gefärbt (s.u.), während das Medium der anderen Platten durch frisches Kulturmedium (200 µl), dem die Testsubstanzen in verschiedenen Konzentrationen (0 µM, sowie im Bereich 0,01 - 30 µM; die finale Konzentration des Lösungsmittels Dimethylsulfoxid beträgt 0,5%) zugesetzt sind, ersetzt. Die Zellen werden für 4 Tage in Anwesenheit der Testsubstanzen inkubiert. Die Zellproliferation wird durch Färbung der Zellen mit Kristallviolett bestimmt: Die Zellen werden durch Zugabe von 20 µl/Messpunkt einer 11%igen Glutaraldehyd-Lösung 15 min bei Raumtemperatur fixiert. Nach dreimaligem Waschen der fixierten Zellen mit Wasser werden die Platten bei Raumtemperatur getrocknet. Die Zellen werden durch Zugabe von 100 µl/Messpunkt einer 0,1%igen Kristallviolett-Lösung (pH durch Zugabe von Essigsäure auf pH3 eingestellt) gefärbt. Nach dreimaligem Waschen der gefärbten Zellen mit Wasser werden die Platten bei Raumtemperatur getrocknet. Der Farbstoff wird durch Zugabe von 100 µl/Messpunkt einer 10%igen Essigsäure-Lösung gelöst. Die Extinktion wird photometrisch bei einer Wellenlänge von 595 nm bestimmt. Die prozentuale Änderung des Zellwachstums wird durch Normalisierung der Messwerte auf die Extinktionwerte der Nullpunktplatte (=0%) und die Extinktion der unbehandelten (0 µM) Zellen (=100%) berechnet. IC50-Werte werden nach einer 4-Parameterkurvenanpassung mit Hilfe eines Firmeneigenen Computerprogramms berechnet.

[2] = test system: DU145; assay: Proliferation assay (crystal violet staining), DU145; type: cell-based, human; details: Homo sapiens, DU-145, 96 h, tumour cell proliferation, 4 days incubation, read-out: Inhibition IC50 [M] (DU145)
Procedure: as §1

[3] = biological target: T1, PLK-1 (Homo sapiens, UniProt P53350); assay: PLK-1 enzyme assay at 10 mM ATP (indirect HTRF assay); type: biochemical; details: read-out: Inhibition PLK-1 IC50 [M] (10 mM ATP)
T1 construct: Fusionsprotein bestehend aus GST und Plk (Kinase Domäne 33-345; MW 36 kDa, conc 0,8 µg/µl); GST; made in house; host or cells: Hi5 insect cells
Procedure: PLK Enzym-Assay (10 mM ATP)
Für den Kinaseassay wird aus Insektenzellen (Hi5) exprimiertes, durch Glutathion-Sepharose-Affinitätschromatographie und anschließender Gel-filtration (Suerdex 75) gereinigtes rekombinantes Fusionsprotein bestehend aus GST und Plk (Kinase Domäne 33-345; MW 36 kDa, conc 0,8 µg/µl) verwendet. Aliqots hiervon werden in flüssigem Stickstoff weggefroren und bei -80°C gelagert und nach dem Auftauen nur einmal verwendet.
Bei dem verwendeten Assay handelt es sich um einen indirekten HTRF-Assay, bei dem folgende Materialien und Verfahrensweisen zum Einsatz kamen. Als Substrat für die Kinasereaktion wird das biotinylierte Peptid Btn-Ahx-KKLNRTLSFAEPG-Amid x TFA, von Biosyntan, Probennr.: 6178.1 (C-Terminus in Amidform) verwendet. Hierbei handelt es sich um eine artifizielle Sequenz, die von keinem bekannten Protein abgeleitet wurde.
50 nl der in 100% Dimethylsulfoxid (DMSO) gelösten Testverbindungen (Endkonzentrationen : 0 µM und Konzentrationen im Bereich von 0,001 - 20 µM) werden mit 2 µl Enzym Arbeitslösung (0,039 ng/µl Plk-1 im Arbeitspuffer [25 mM MgCl2; 1mM DTT; 50 mM Hepes pH 7,0; 0,01% NP40; 1x Complete; 0,05% BSA] für 30 min vorinkubiert. Anschließend wird die Kinase-Reaktion durch Zugabe von 3 µl Substratlösung [16,7 mM Adenosintriphosphate (ATP) und 1,4 µM Substratpeptid (Biotin-Ttds- KKLNRTLSFAEPG -NH2)] in Arbeitspuffer gestartet, und nach 30 min durch Zugabe einer Abstopp-Lösung (100 mM EDTA, 100 mM Hepes pH 7,5, 800 mM Potassiumfluoride, 0,12% BSA, 0,4 µM SA-XLent (0,05 µM, von CIS bio international, Marcoule, Frankreich), Eu^3+ Cryptate-conjugated Rabbit anti-Mouse IgG (1,5 nM; ein mit Europiumkryptat markierter Anti-Maus-IgG-Antikörper von CIS bio international, Marcoule, Frankreich), 1 nM Anti-phospho-Serine Kinase (ein phospho-spezifischer Antikörper von Upstate Biotechnology, Dundee, Schottland), gestoppt, und bei 4°C über Nacht inkubiert. Danach wird die Menge des phosphorylierten Substratpeptids durch Messung des Resonanzenergietransfers vom Europium-markierten Antikörperkomplex zum Streptavidine-XLent bestimmt. Zu diesem Zweck wird die Fluoreszenzemission bei 620 nm und 665 nm nach Anregung bei 350 nm in einem HTRF-Messgerät, z. B. Rubystar (BMG Labtechnologies, Offenburg, Deutschland) oder Viewlux (Perkin-Elmer), bestimmt. Das Verhältnis der Emissionen bei 665 nm und bei 620 nm wird als Maß für die Menge des phosphorylierten Substratpeptids verwendet. Die Daten werden normalisiert (Enzymreaktion ohne Inhibitor = 0 % Inhibition, alle anderen Assaykomponenten, aber kein Enzym = 100 % Inhibition), und IC50-Werte werden durch einen 4 Parameter-Fit mit einer hauseigenen Software berechnet.

[4] = test system: MCF-7; assay: Proliferation assay (crystal violet staining), MCF-7; type: cell-based, human; details: Homo sapiens, MCF7, 96 h, tumour cell proliferation, 4 days incubation, read-out: Inhibition IC50 [M] (MCF-7)
Procedure: as §1

T1 sequence (P53350 33-345): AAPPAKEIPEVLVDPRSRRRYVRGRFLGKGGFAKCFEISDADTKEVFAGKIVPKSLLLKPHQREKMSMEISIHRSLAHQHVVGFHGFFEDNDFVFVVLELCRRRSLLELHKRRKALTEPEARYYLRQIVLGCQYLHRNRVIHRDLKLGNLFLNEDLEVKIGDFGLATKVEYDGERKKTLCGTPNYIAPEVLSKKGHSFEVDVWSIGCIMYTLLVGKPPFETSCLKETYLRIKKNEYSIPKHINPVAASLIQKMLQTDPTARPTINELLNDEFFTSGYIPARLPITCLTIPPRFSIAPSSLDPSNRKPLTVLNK

Row | Structure (SMILES) | IC50 [1] | IC50 [2] | IC50 [3] | IC50 [4]
1 | CCn1c(=C(C#N)C(=O)NCC(F)(F)F)sc(=CNc2ccc3ccn(CC(=O)N(C)C)c3c2)c1=O [B80] | 8.9e-07 M | 5.1e-07 M | 4.9e-08 M | 3.1e-07 M
2 | CCn1c(=C(C#N)C(=O)NCC#N)sc(=CNc2ccc3cn(C4CCN(C(C)C)CC4)nc3c2)c1=O [B102] | 6.2e-07 M | 2.8e-07 M | 2.2e-08 M | 1.9e-07 M
3 | CCCN1CCC(c2cn(CC)c3ccc(NC=c4sc(=C(C#N)C(=O)NCC#N)n(CC)c4=O)cc23)CC1 [B109] | 1.6e-07 M | 5.4e-08 M | 3.5e-09 M | 1.4e-07 M
4 | CCn1c(=C(C#N)C(=O)NCC#N)sc(=CNc2ccc3c(c2)c(C2CCN(C4CC4)CC2)cn3C)c1=O [B115] | 1.3e-07 M | 3.7e-08 M | 1.3e-09 M | 1.1e-07 M
5 | CCn1c(=O)c(=CNc2ccc3c(c2)c(C2CCN(C)CC2)cn3C)s/c1=C(/C#N)C(=O)NCC(F)(F)F [B118, (Z,E/Z)-2-Cyan-2-[3-ethyl-5-[[[1-methyl-3-(1-methyl-4-piperidinyl)-1H-indol-5-yl]amino]methylen]-4-oxo-2-thiazolidinyliden]-N-(2,2,2-trifluorethyl)acetamid] | 1.7e-07 M | 8.5e-08 M | 2.1e-09 M | 2.9e-07 M
6 | CCn1c(=O)c(=CNc2ccc3c(c2)c(C2CCN(C4CC4)CC2)cn3C)s/c1=C(/C#N)C(=O)NCC(F)(F)F [B123] | 5e-07 M | 2.3e-07 M | 1.2e-08 M | 6.2e-07 M
7 | CCn1c(=O)c(=CNc2ccc3c(C4CCN(C)CC4)cn(C)c3c2)s/c1=C(/C#N)C(=O)NCC#N [B130] | 3.7e-07 M | 8.4e-08 M | 1e-09 M | 1.4e-07 M
8 | CCn1c(=C(C#N)C(=O)NCC(F)(F)F)sc(=CNc2ccc3ccn(CCN4CCCC4)c3c2)c1=O [B132] | 4e-07 M | 2.2e-07 M | 3.3e-09 M | 4.5e-07 M
9 | CCn1c(=O)c(=CNc2ccc3ncn(C4CCN(C)CC4)c3c2)s/c1=C(/C#N)C(=O)NCC(F)(F)F [B147] | 2.4e-07 M | 1.3e-07 M | 3.1e-09 M | 2.4e-07 M
10 | CCn1c(=O)c(=CNc2ccc3c(Cl)cn(C4CCN(C)CC4)c3c2)s/c1=C(/C#N)C(=O)NCC#N [B153] | 5.9e-07 M | 1.4e-07 M | 1e-09 M | 4.2e-07 M
11 | CCn1c(=O)c(=CNc2ccc3ccn(C4CC(C)(C)N(C)C(C)(C)C4)c3c2)s/c1=C(/C#N)C(=O)NCC#N [B162] | 3.7e-08 M | 3.5e-08 M | 3.7e-09 M | 1.4e-07 M
12 | CCn1c(=O)c(=CNc2ccc3c(Cl)cn([C@H]4CC[C@H](N(C)C)CC4)c3c2)s/c1=C(/C#N)C(=O)NCC#N [B165] | 6.1e-07 M | 1.8e-07 M | 1.3e-09 M | 1.7e-07 M
13 | CCn1c(=O)c(=CNc2ccc3ccn(C4CCN(C)CC4)c3c2)s/c1=C(/C#N)C(=O)NC(c1ccco1)C(F)(F)F (centres unmarked) [B176] | 3.9e-07 M | 2.1e-07 M | 6.2e-08 M | 1.2e-07 M
14 | CCn1c(=O)c(=CNc2ccc3c(C(=O)C(C)(C)C)cn(C4CCN(C)CC4)c3c2)s/c1=C(/C#N)C(=O)NCC#N [B183] | 3.2e-07 M | 1.3e-07 M | 4.2e-09 M | 1.6e-07 M

From patent publication EP2141163A1, “Substituted thiazolidinones, their production and utilisation as medicine” (Bayer Schering Pharma Aktiengesellschaft, priority 2008, dated 2010)
